Test results from patent US10639299B2, “Calcium sensing receptors, ligands, compositions, and methods of use” (Georgia State University Research Foundation, Inc., priority 2016, dated 2020).

Target: T1, CaSR (Homo sapiens, UniProt P41180)
T1 sequence (P41180 20-1078): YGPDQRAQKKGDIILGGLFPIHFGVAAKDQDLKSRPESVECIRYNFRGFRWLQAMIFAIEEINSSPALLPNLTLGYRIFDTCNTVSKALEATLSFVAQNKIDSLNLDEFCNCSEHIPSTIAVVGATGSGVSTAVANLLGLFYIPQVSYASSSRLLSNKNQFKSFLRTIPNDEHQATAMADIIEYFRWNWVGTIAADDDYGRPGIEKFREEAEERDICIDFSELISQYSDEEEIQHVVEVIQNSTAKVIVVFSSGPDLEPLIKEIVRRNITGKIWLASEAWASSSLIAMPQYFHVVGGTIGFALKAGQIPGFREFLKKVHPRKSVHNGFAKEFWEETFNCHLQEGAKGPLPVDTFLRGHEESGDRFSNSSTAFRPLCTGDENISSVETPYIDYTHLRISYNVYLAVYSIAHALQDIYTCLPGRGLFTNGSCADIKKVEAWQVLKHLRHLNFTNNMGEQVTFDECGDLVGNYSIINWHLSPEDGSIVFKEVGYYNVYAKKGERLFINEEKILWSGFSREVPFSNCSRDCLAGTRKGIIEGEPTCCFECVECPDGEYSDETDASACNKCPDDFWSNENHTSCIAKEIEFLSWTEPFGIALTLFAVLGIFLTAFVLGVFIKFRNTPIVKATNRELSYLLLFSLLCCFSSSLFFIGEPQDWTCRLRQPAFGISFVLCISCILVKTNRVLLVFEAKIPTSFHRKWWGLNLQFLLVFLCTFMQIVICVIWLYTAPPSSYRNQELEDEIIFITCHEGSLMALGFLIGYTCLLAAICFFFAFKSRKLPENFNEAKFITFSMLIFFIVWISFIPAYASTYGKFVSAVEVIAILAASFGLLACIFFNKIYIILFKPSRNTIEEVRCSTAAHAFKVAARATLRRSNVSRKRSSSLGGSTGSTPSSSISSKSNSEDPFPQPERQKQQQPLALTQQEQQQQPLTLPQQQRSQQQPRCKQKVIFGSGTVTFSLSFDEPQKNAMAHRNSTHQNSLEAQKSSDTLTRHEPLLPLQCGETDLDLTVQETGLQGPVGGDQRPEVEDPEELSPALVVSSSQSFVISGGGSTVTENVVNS
Assay: [Ca^2+]i signaling (Fura-2) evoked by [Mg^2+]o/[Ca^2+]o in CaSR-expressing HEK293 cells (5001 cell population assay)
Format: cell-based
Set-up: expressed in transfected cells
Protocol: Measurement of intracellular free Ca^2+ was assessed as described by Huang, et al^33. Briefly, wild type CaSR, or its mutants, were transiently transfected into HEK293 cells grown on coverslips and cultured for 48 h. The cells were subsequently loaded for 15 min using 2 μM Fura-2 AM in 2 mL physiological saline buffer (10 mM HEPES, 140 mM NaCl, 5 mM KCl, 1.0 mM MgCl2 and pH 7.4). The coverslips were mounted in a bath chamber on the stage of a Leica DM6000 fluorescence microscope. The cells were alternately illuminated with 340 or 380 nm light, and the fluorescence at an emission wavelength 510 nm was recorded in real time as the [Ca^2+]o and/or [Mg^2+]o was increased in a stepwise manner in the presence or absence of 0.25 mM TNCA in buffer (10 mM HEPES, 155 mM NaCl, 5 mM KCl, 2 mM NaH2PO4, 0.5 mM MgCl2 and pH 7.4). The ratio of the emitted fluorescence intensities resulting from excitation at both wavelengths was utilized as a surrogate for changes in [Ca^2+]i and was further plotted and analyzed as a function of [Ca^2+]o. All experiments were performed at room temperature. The signals from 20 to 100 single cells were recorded for each measurement. Oscillations were identified as three successive fluctuations in [Ca^2+]i after the initial peak. Determination of the Effect of TNCA on Mg^2+-Evoked [Ca^2+]i Signaling by Stimulation of CaSR in Cell Populations.
Changes in the intracellular Ca^2+ concentration [Ca^2+ ]i elicited by extracellular Mg^2+ ([Mg^2+]o) in a population of cells were measured by fluorimetry as described previously^33. A cell line stably expressing CaSR (designated the “5001 cell line”) was seeded on 13.5×20-mm coverslips and cultured in DMEM. After reaching 95% confluence, cells were washed three times using loading buffer (20 mM HEPES [pH 7.4], 125 mM NaCl, 5 mM KCl, 1.25 mM CaCl2, 1 mM MgCl2, 1 mM NaH2PO4, 1% glucose, and 1% BSA) and subsequently incubated with 4 μM Fura-2 and 4 μM pluronic F127 for 20 minutes at 37° C. to enable sufficient dye loading in the same buffer. After removing the excess Fura-2, coverslips with cells were diagonally positioned in a quartz cuvette filled with 3 ml of experimental buffer (125 mM NaCl, 5 mM KCl, 0.5 mM CaCl2, 0.5 mM MgCl2, 1% glucose, and 1% BSA). Measurements of Fura-2 fluorescence at 510 nm when excited at 340 or 380 nm were performed on a QM1 fluorescence spectrophotometer (PTI). The emission ratio of 340/380 was calculated and used to reflect the changes in [Ca^2+]i when different concentrations of [Mg^2+]o were applied to the cells.
To examine the co-activation of CaSR by TNCA and [Mg^2+]o or [Ca^2+]o, different concentrations of TNCA were placed in the experimental buffer with a fixed concentration of [Ca^2+]o and varying concentrations of [Mg^2+]o, or vice versa, as described in the results section. The effects of other ligands were analyzed by comparing the changes in [Ca^2+ ]i produced by [Mg^2+]o alone or by co-application of Mg^2+ with other ligands. The EC50 of [Mg^2+]o obtained during incubation with various concentrations of TNCA is compared with that observed in the presence of [Mg^2+]o alone. The EC50 changes were plotted as a function of TNCA concentration and the curve was fit to the Hill equation. The activation of CaSR by the TNCA, functioning as a co-agonist with [Mg^2+]o, is indicated by the increasingly leftward-shifted EC50 for [Mg^2+]o as the concentration of TNCA increases (FIG. 6).

## N[C@@H](Cc1ccccc1)C(=O)O [Phe, phenylalanine]
  effect on [Mg^2+]o activation of CaSR: further potentiated
